Columns and labels:
[1] = xn = mol fraction of the nth substance listed; conditions: 101 kPa, Liquid; for viscosity: Capillary tube (Ostwald / Ubbelohde) method; for mass density: Vibrating tube method
[2] = refractive index (Na D-line) (dimensionless); xn = mol fraction of the nth substance listed; conditions: 101 kPa, Liquid, Standard Abbe refractometry

CC1CCC(C)C(C)C1 (stereo not given) [1,2,4-trimethylcyclohexane] + C1C[C@@H]2[C@H]3CC[C@H](C3)[C@@H]2C1
Conditions | mass density, [1] [kg/m3] | refractive index, [2] | viscosity, [1] [mPa·s]
293.15 K, x2 = 0 | 790.8 | 1.4331 | 0.886
293.15 K, x2 = 0.1 | 804.62 | 1.4381 | 0.986
293.15 K, x2 = 0.1996 | 818.49 | 1.4436 | 1.101
293.15 K, x2 = 0.3002 | 832.73 | 1.449 | 1.23
293.15 K, x2 = 0.4009 | 847.13 | 1.4545 | 1.381
293.15 K, x2 = 0.5001 | 861.44 | 1.4597 | 1.562
293.15 K, x2 = 0.5992 | 875.89 | 1.4651 | 1.759
293.15 K, x2 = 0.6998 | 890.7 | 1.4709 | 2.008
293.15 K, x2 = 0.7997 | 905.51 | 1.476 | 2.277
293.15 K, x2 = 0.9001 | 920.61 | 1.4818 | 2.609
298.15 K, x2 = 0 | 786.92 | – | 0.827
298.15 K, x2 = 0.1 | 800.71 | – | 0.917
298.15 K, x2 = 0.1996 | 814.61 | – | 1.021
298.15 K, x2 = 0.3002 | 828.84 | – | 1.137
298.15 K, x2 = 0.4009 | 843.21 | – | 1.273
298.15 K, x2 = 0.5001 | 857.51 | – | 1.436
298.15 K, x2 = 0.5992 | 871.98 | – | 1.613
298.15 K, x2 = 0.6998 | 886.77 | – | 1.837
298.15 K, x2 = 0.7997 | 901.61 | – | 2.076
298.15 K, x2 = 0.9001 | 916.71 | – | 2.371
303.15 K, x2 = 0 | 783.03 | 1.4285 | 0.774
303.15 K, x2 = 0.1 | 796.8 | 1.4339 | 0.856
303.15 K, x2 = 0.1996 | 810.7 | 1.4392 | 0.95
303.15 K, x2 = 0.3002 | 824.93 | 1.4442 | 1.056
303.15 K, x2 = 0.4009 | 839.3 | 1.4499 | 1.179
303.15 K, x2 = 0.5001 | 853.59 | 1.4554 | 1.326
303.15 K, x2 = 0.5992 | 868.06 | 1.4608 | 1.486
303.15 K, x2 = 0.6998 | 882.85 | 1.4661 | 1.687
303.15 K, x2 = 0.7997 | 897.7 | 1.4718 | 1.901
303.15 K, x2 = 0.9001 | 912.81 | 1.4775 | 2.165
308.15 K, x2 = 0 | 779.13 | – | 0.727
308.15 K, x2 = 0.1 | 792.9 | – | 0.802
308.15 K, x2 = 0.1996 | 806.79 | – | 0.888
308.15 K, x2 = 0.3002 | 821.01 | – | 0.984
308.15 K, x2 = 0.4009 | 835.38 | – | 1.096
308.15 K, x2 = 0.5001 | 849.67 | – | 1.23
308.15 K, x2 = 0.5992 | 864.13 | – | 1.374
308.15 K, x2 = 0.6998 | 878.93 | – | 1.556
308.15 K, x2 = 0.7997 | 893.78 | – | 1.749
308.15 K, x2 = 0.9001 | 908.89 | – | 1.985
313.15 K, x2 = 0 | 775.23 | 1.424 | 0.686
313.15 K, x2 = 0.1 | 788.98 | 1.429 | 0.753
313.15 K, x2 = 0.1996 | 802.87 | 1.4346 | 0.832
313.15 K, x2 = 0.3002 | 817.09 | 1.44 | 0.92
313.15 K, x2 = 0.4009 | 831.45 | 1.4452 | 1.022
313.15 K, x2 = 0.5001 | 845.74 | 1.4508 | 1.144
313.15 K, x2 = 0.5992 | 860.2 | 1.4561 | 1.275
313.15 K, x2 = 0.6998 | 875.01 | 1.4618 | 1.44
313.15 K, x2 = 0.7997 | 889.85 | 1.4676 | 1.615
313.15 K, x2 = 0.9001 | 904.97 | 1.4731 | 1.828
318.15 K, x2 = 0 | 771.32 | – | 0.648
318.15 K, x2 = 0.1 | 785.06 | – | 0.71
318.15 K, x2 = 0.1996 | 798.94 | – | 0.782
318.15 K, x2 = 0.3002 | 813.16 | – | 0.862
318.15 K, x2 = 0.4009 | 827.52 | – | 0.956
318.15 K, x2 = 0.5001 | 841.8 | – | 1.068
318.15 K, x2 = 0.5992 | 856.27 | – | 1.187
318.15 K, x2 = 0.6998 | 871.07 | – | 1.337
318.15 K, x2 = 0.7997 | 885.92 | – | 1.496
318.15 K, x2 = 0.9001 | 901.04 | – | 1.688

— the NIST ThermoML archive (doi:10.1021/je400529k)
